Read-outs that look alike come from different tables or passages of the source.
Experiments:
[1] = target: T1, recombinant human ALK5 (TGF-βR1) protein (Homo sapiens, UniProt P36897); test: Biochemical ALK5 (TGF-βR1) assay to measure pKi (LANCE Ultra ULight kinase assay); settings: apparent pKi from pIC50 by Cheng-Prusoff
T1 construct: purchased Life Technologies PR9075A
T1 sequence (P36897 34-503): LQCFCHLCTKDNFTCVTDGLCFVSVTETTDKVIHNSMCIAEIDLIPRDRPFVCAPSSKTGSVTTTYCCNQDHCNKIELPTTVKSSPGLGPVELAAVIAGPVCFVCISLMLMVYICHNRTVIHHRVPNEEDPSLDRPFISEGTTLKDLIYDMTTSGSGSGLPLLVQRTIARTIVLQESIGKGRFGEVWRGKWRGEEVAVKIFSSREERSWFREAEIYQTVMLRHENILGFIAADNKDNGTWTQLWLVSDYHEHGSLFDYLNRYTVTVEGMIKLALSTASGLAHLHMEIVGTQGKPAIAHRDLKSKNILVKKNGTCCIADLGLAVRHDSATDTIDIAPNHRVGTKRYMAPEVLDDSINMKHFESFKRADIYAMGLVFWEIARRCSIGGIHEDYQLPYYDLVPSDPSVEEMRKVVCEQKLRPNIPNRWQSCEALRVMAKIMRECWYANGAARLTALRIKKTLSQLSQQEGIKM
Experimental: The assays were performed in a 384-well plate (24 columns×16 wells/rows). An Echo® 550 Liquid Handler (Labcyte) was used to prepare various intermediate concentrations of compounds of the present disclosure in 100% DMSO. From the intermediate concentrations, a range of concentrations (from 10 μM to 25 pM corresponding to volumes up to 105 nL) were prepared and ejected into a final assay plate to be used to create individual dose response curves for each of the subject compounds. To a separate column within the assay plate, 105 nL of DMSO in each well was used to establish a maximum assay signal.
With a multidrop dispenser, 8 μL of enzyme mixture (1.25× final) was added to each well. […] The plate was then sealed with an adhesive seal and allowed to equilibrate for 60 minutes at room temperature.
Next, 2 μL of 125 μM ATP (5× final, 125 μM ATP prepared in assay buffer with 2 mM DTT) was added to the incubated mixtures, covered with a MicroClime® Environmental Lid (Product No. LLS-0310, Labcyte) and immediately transferred to 37° C. The reactions were allowed to proceed at 37° C. for 60 minutes before terminating with the addition of 10 μL of detection antibody (LANCE® (lanthanide chelate excite) Ultra Europium-anti-phospo-DNA Topoisomerase 2-alpha (Thr1342)) in detection mixture (12 mM EDTA, 4 nM detection antibody prepared in detection buffer (50 mM Tris-HCl, 150 mM NaCl, 0.5% BSA (Fraction V), pH 7.0)) at room temperature. The plate was then read on a Perkin Elmer EnVision Plate Reader using europium specific reader settings with excitation and emission wavelengths set to 320 or 340 nm and 665 nm, respectively.
For dose-response analyses, percent inhibition versus compound concentrations were plotted, and pIC50 values were determined from a 4-parameter robust fit model with GraphPad Prism V5 Software (GraphPad Software, Inc., La Jolla, Calif.). This model obtains pIC50 values by fitting the sigmoidal dose-response (variable slope) equation to the data. Results were expressed as pIC50 (negative logarithm of IC50) and subsequently converted to pKi (negative logarithm of dissociate constant, K) using the Cheng-Prusoff equation. The higher the value of pKi (lower value of Ki), the greater the inhibition of ALK5 activity.

[2] = system: TGF-β-stimulated SMAD3 phosphorylation in BEAS-2B cells; test: Cellular ALK5 potency assay, inhibition of TGF-β stimulated pSMAD3 formation in BEAS-2B cells; format: cell-based; settings: Homo sapiens, read-out: BEAS2B pIC50 (converted)
Experimental: The potency of compounds of the present disclosure for inhibition of TGF-β-stimulated SMAD3 phosphorylation was measured in BEAS-2B cells, a human lung epithelial cell line. TGF-β signals through activin receptor-like kinase 5 (ALK5) immediately prior to SMAD3 phosphorylation.
BEAS-2B cells were grown using 50% DMEM (Life Technologies) and 50% F-12 (Life Technologies) media, supplemented with 10% Fetal Bovine Serum (ATCC), 25 mM HEPES (Life Technologies), and 1× Pen-Strep (Life Technologies). Cells were cultured in a humidified incubator set at 37° C., 5% CO2, and trypsonized using 0.25% Trypsin with 0.5% polyvinylpyrrolidone (PVP).
For the assay, BEAS-2B cells were seeded at 7,500 cells/well (25 μL/well) in a 384-well plate and cultured overnight. Before dosing, growth media was aspirated and the wells were rinsed with HBSS Buffer (HBSS with Calcium and Magnesium, Life Technologies) supplemented with 25 mM HEPES (Life Technologies) and 1% Bovine Serum Albumin (Roche). Compounds were serially diluted in DMSO, then further diluted with supplemented HBSS Buffer (50 μL/well) to create a compound plate 3× of the final assay concentration, at 0.3% DMSO. The diluted compounds were then added to the cells (8 μL/well) and incubated at 37° C., 5% CO2 for 1 hour. After the compound incubation, TGF-β (R&D Systems) reconstituted in supplemented HBSS Buffer was added to the cells ([…], final concentration 10 ng/mL) and incubated for a further 30 minutes, after which the cells were immediately lysed with AlphaLISA lysis buffer (PerkinElmer). AlphaLISA Acceptor and Detector beads (PerkinElmer) were added 2 hours apart, then incubated overnight to be read the next day. The potency of the compound was determined through analysis of dose-dependent quantified changes in pSMAD3 signal from baseline (non-compound treated TGF-β stimulated cells). Data are expressed as pIC50 (negative decadic logarithm IC50) values.

[3] = inhibition of TGF-β stimulated pSMAD3 formation, BEAS-2B cells

Structure (SMILES) | Ki ([1]; read-out: ALK5 pKi (converted)) | IC50 [2, 3] | Ki ([1]; ALK5 pKi) | IC50 ([2]; BEAS-2B)
Cc1cccc(-c2n[nH]cc2-c2ccc3ncc(N4CCCN(C)C(C)C4)cc3n2)n1 (racemic) [Compound 19, 2-[3-(6-methyl-2-pyridyl)-1H-pyrazol-4-yl]-7-[rac-(3S)-3,4-dimethyl-1,4-diazepan-1-yl]-1,5-naphthyridine] | 0.0398 to 0.316 nM | 25.1 to 158 nM | – | –
Cc1cccc(-c2nnn(C)c2-c2ccc3ncc(N4CCC(N(C)C)C4)cc3c2)n1 (racemic) [Compound 25, rac-(3S)-N,N-dimethyl-1-[6-[3-methyl-5-(6-methyl-2-pyridyl)triazol-4-yl]-3-quinolyl]pyrrolidin-3-amine] | 0.0398 to 0.316 nM | 25.1 to 158 nM | – | –
Cc1cccc(-c2n[nH]cc2-c2ccc3ncc(N4CC[C@H](N(C)C)C4)cc3c2)n1 (racemic) [Compound 70, rac-(3S)-N,N-dimethyl-1-[6-[3-(6-methyl-2-pyridyl)-1H-pyrazol-4-yl]-3-quinolyl]pyrrolidin-3-amine] | < 0.0316 nM | 25.1 to 158 nM | – | –
Cc1nc(-c2n[nH]cc2-c2ccc3ncc(-c4cnn([C@H]5CC[C@@H](N)C5)c4)cc3n2)ccc1F (racemic) [Compound 96, rac-(1R,3S)-3-[4-[6-[3-(5-fluoro-6-methyl-2-pyridyl)-1H-pyrazol-4-yl]-1,5-naphthyridin-3-yl]pyrazol-1-yl]cyclopentanamine] | < 0.0316 nM | 25.1 to 158 nM | – | –
Cc1cccc(-c2n[nH]cc2-c2ccc3ncc(N(C)C4CCN(C)C4)cc3n2)n1 (racemic) [Compound 140, N-methyl-6-[3-(6-methyl-2-pyridyl)-1H-pyrazol-4-yl]-N-[rac-(3R)-1-methylpyrrolidin-3-yl]-1,5-naphthyridin-3-amine] | < 0.0316 nM | 25.1 to 158 nM | – | –
Cc1cccc(-c2n[nH]cc2-c2ccc3ncc(C4=C[C@H]5CC[C@@H](C4)N5)cc3n2)n1 (racemic) [Compound 161, 2-[3-(6-methyl-2-pyridyl)-1H-pyrazol-4-yl]-7-[rac-(1R,5S)-8-azabicyclo[3.2.1]oct-2-en-3-yl]-1,5-naphthyridine] | – | – | 0.0398 to 0.316 nM | 25.1 to 158 nM
Cc1cccc(-c2[nH]cnc2-c2ccc3ncc(NCCNC4CCCNC4)cc3c2)n1 (racemic) [Compound 217, N-[6-[5-(6-methyl-2-pyridyl)-1H-imidazol-4-yl]-3-quinolyl]-N′-[rac-(3R)-3-piperidyl]ethane-1,2-diamine] | 0.0398 to 0.316 nM | 200 to 1260 nM | – | –
Cc1cccc(-c2n[nH]cc2-c2ccc3ncc(N(C)C4CCNC4)cc3n2)n1 (racemic) [Compound 242, N-methyl-6-[3-(6-methyl-2-pyridyl)-1H-pyrazol-4-yl]-N-[rac-(3R)-pyrrolidin-3-yl]-1,5-naphthyridin-3-amine] | 0.0398 to 0.316 nM | 25.1 to 158 nM | – | –
Cc1nc(-c2n[nH]cc2-c2ccc3ncc(-c4cnn(C5CCC(N)CC5)c4)cc3n2)ccc1F (stereo not drawn) [Compound 459, 4-[4-[6-[3-(5-fluoro-6-methyl-2-pyridyl)-1H-pyrazol-4-yl]-1,5-naphthyridin-3-yl]pyrazol-1-yl]cyclohexanamine] | – | 25.1 to 158 nM | – | –
CCOC(=O)[C@H](C)NP(=O)(OCc1cnc2ccc(-c3cn[nH]c3-c3cccc(C)n3)nc2c1)Oc1ccccc1 (stereo partly drawn) [Compound 464, ethyl (2S)-2-[[[6-[5-(6-methyl-2-pyridyl)-1H-pyrazol-4-yl]-1,5-naphthyridin-3-yl]methoxy-phenoxy-phosphoryl]amino]propanoate] | 0.0398 to 0.316 nM | – | – | –
Cc1nc(-c2n[nH]cc2-c2ccc3ncc(-c4cnn(C5CC(N)C5)c4)cc3n2)ccc1F (stereo not drawn) [Compound 647, 3-[4-[6-[3-(5-fluoro-6-methyl-2-pyridyl)-1H-pyrazol-4-yl]-1,5-naphthyridin-3-yl]pyrazol-1-yl]cyclobutanamine] | – | 25.1 to 158 nM | – | –
Cc1cccc(-c2[nH]cnc2-c2ccc3ncc(N4CCC(NCCSC(CCO)C(=O)O)C4)cc3c2)n1 (stereo not drawn) [Compound 720, 4-hydroxy-2-[2-[[1-[6-[5-(6-methyl-2-pyridyl)-1H-imidazol-4-yl]-3-quinolyl]pyrrolidin-3-yl]amino]ethylsulfanyl]butanoic acid] | 0.0398 to 0.316 nM | – | – | –
Cc1cccc(-c2n[nH]cc2-c2ccc3nccc(C(=O)NCCCN4CCOCC4)c3n2)n1 [Compound 803, 6-[3-(6-methyl-2-pyridyl)-1H-pyrazol-4-yl]-N-(3-morpholinopropyl)-1,5-naphthyridine-4-carboxamide] | 0.398 to 3.16 nM | – | – | –
Cc1cccc(-c2n[nH]cc2-c2ccc3nccc(C(=O)NCN4CCOCC4)c3n2)n1 [Compound 807, 6-[3-(6-methyl-2-pyridyl)-1H-pyrazol-4-yl]-N-(morpholinomethyl)-1,5-naphthyridine-4-carboxamide] | 0.398 to 3.16 nM | – | – | –
Cc1cccc(-c2n[nH]cc2-c2ccc3nccc(C(=O)NCCN4CCN(C(C)C)CC4)c3n2)n1 [Compound 808, N-[2-(4-isopropylpiperazin-1-yl)ethyl]-6-[3-(6-methyl-2-pyridyl)-1H-pyrazol-4-yl]-1,5-naphthyridine-4-carboxamide] | 3.98 to 31.6 nM | – | – | –
CNCCn1cc(-c2cnc3ccc(-c4c[nH]nc4-c4ccc(F)c(C)n4)nc3c2C)cn1 [Compound 870, 2-[4-[6-[3-(5-fluoro-6-methyl-2-pyridyl)-1H-pyrazol-4-yl]-4-methyl-1,5-naphthyridin-3-yl]pyrazol-1-yl]-N-methyl-ethanamine] | – | 25.1 to 158 nM | – | –
Cc1cccc(-c2[nH]cnc2-c2ccc3ncc(-c4ncc(C(=O)OC5CCNCC5)s4)cc3c2)n1 [Compound 1022, piperidin-4-yl 2-(6-(5-(6-methylpyridin-2-yl)-1H-imidazol-4-yl)quinolin-3-yl)thiazole-5-carboxylate] | 0.0398 to 0.316 nM | – | – | –
Cc1cccc(-c2[nH]ncc2-c2ccc3nccc(C(=O)O[C@H]4CC[C@](C)(N)CC4)c3c2)n1 [Compound 1135, (4-amino-4-methyl-cyclohexyl) 6-[5-(6-methyl-2-pyridyl)-1H-pyrazol-4-yl]quinoline-4-carboxylate] | 3.98 to 31.6 nM | – | – | –
Cc1cccc(-c2[nH]cnc2-c2ccc3ncc(-c4csc(C(=O)OC[C@H]5CC[C@H](N)CC5)c4)cc3c2)n1 [Compound 1245, (4-aminocyclohexyl)methyl 4-[6-[5-(6-methyl-2-pyridyl)-1H-imidazol-4-yl]-3-quinolyl]thiophene-2-carboxylate] | 0.0398 to 0.316 nM | – | – | –

Reference: patent US11590116B2 (THERAVANCE BIOPHARMA R&D IP, LLC, priority 2019, dated 2023)
